Data on 2 molecules can be found in ChEMBL document CHEMBL3421624, “Design and Synthesis of Antitumor Heck-Coupled Sclareol Analogues: Modulation of BH3 Family Members by SS-12 in Autophagy and Apoptotic Cell Death” (J Med Chem, 2015).

Each structure is given as a SMILES string. Calls of active or inactive are those of the source. The calls are words filed in the database; no cut-off is given here.

One data set concerns HeLa. Kind of data set: Cytotoxicity against human HeLa cells after 48 hrs by MTT assay. Format: functional, cell-based.
For data set [1], the system named is PC-3. Kind of data set: Induction of apoptosis in human PC3 cells at 300 nM pre-treated with 20 uM apoptosis inhibitor z-VAD-fmk for 1 hr before compound exposure for 24 hrs by DAPI staining method. The format is functional, cell-based.
Data set [2] deals with PC-3. Kind of data set: Induction of apoptosis in human PC3 cells assessed as caspase-3 cleavage at 0.1 to 0.3 uM after 24 hrs by Western blotting method. The format is functional, cell-based.
Data set [3] deals with Mus musculus. The data set is described as follows: Toxicity in mouse S180 ascites cells implanted Swiss albino mouse assessed as mouse mortality at 5 mg/kg, ip measured on day 13. The format is organism-based. Also noted: dose 5 mg/kg, route intraperitoneal. The following applies: in vivo.
Data set [4] has as its system PC-3. The data set is described as follows: Induction of autophagy in human PC3 cells over-expressing Bcl-2 at 300 nM pre-treated with 20 uM apoptosis inhibitor z-VAD-fmk for 1 hr before compound exposure for 24 hrs by acridine orange staining based fluorescence microscopy. The format is functional, cell-based.
The subject of data set [5] is PC-3. The data set is described as follows: Induction of autophagy in human PC3 cells over-expressing DS-Red-Beclin-1 at 300 nM pre-treated with 20 uM apoptosis inhibitor z-VAD-fmk for 1 hr before compound exposure for 24 hrs by acridine orange staining based fluorescence microscopy. The format is functional, cell-based.
Data set [6] can be described thus: Cytotoxicity against human PC3 cells after 48 hrs by MTT assay. The format is functional, cell-based. The following applies: PC-3, 48 h.
The subject of data set [7] is PC-3. Kind of data set: Increase in PARP-cleavage in human PC3 cells at 0.3 uM in presence of Beclin-1 siRNA after 24 hrs by immunoblotting method. Format: functional, cell-based.
A short description of data set [8]: Reduction in Bcl-2 protein expression in human PC3 cells at 0.1 to 0.3 uM after 24 hrs by Western blotting method. The format is functional, cell-based. The following applies: PC-3.
Data set [9] has as its system PC-3. Kind of data set: Induction of autophagy in human PC3 cells at 300 nM pre-treated with 5 mM autophagy inhibitor 3-MA for 1 hr before compound exposure for 24 hrs by acridine orange staining based fluorescence microscopy. Format: functional, cell-based.
The subject of data set [10] is PC-3. The data set is described as follows: Induction of autophagy in human PC3 cells assessed as increase in Beclin-1 protein levels at 0.1 to 0.3 uM after 24 hrs by Western blotting method. The format is functional, cell-based.
Another data set deals with A549. Kind of data set: Cytotoxicity against human A549 cells after 48 hrs by MTT assay. Format: functional, cell-based. The following applies: A549, 48 h.
Data set [11] has as its system PC-3. The data set is described as follows: Induction of apoptosis in human PC3 cells assessed as membrane blebbing at 100 to 300 nM after 24 hrs by DAPI staining assay. The format is functional, cell-based.
For data set [12], the system named is PC-3. The data set is described as follows: Inhibition of Akt in human PC3 cells assessed as reduction in mTOR S2448 phosphorylation at 0.1 to 0.3 uM after 24 hrs by Western blotting method. The format is cell-based.
Data set [13] concerns CCRF S-180. Kind of data set: Antitumor activity against mouse S180 solid tumor cells implanted in Swiss albino mouse assessed as tumor growth inhibition at 10 mg/kg, ip measured on day 13. The format is functional. The following applies: CCRF S-180, ip, 312 h, route intraperitoneal, read-out: TGI.
Data set [14] relates to PC-3. Kind of data set: Induction of apoptosis in human PC3 cells assessed as caspase-3 cleavage at 300 nM after 24 hrs by Western blotting method. Format: functional, cell-based.
In data set [15] the test system is PC-3. The data set is described as follows: Induction of autophagy in human PC3 cells assessed as acidic vesicular organelles formation at 100 to 300 nM after 24 hrs by acridine orange staining based fluorescence microscopy. The format is functional, cell-based.
Data set [16] is described as follows: Effect on total Akt protein levels in human PC3 cells at 0.1 to 0.3 uM after 24 hrs by Western blotting method. Format: ADME, cell-based. The following applies: pc-3, 24 h.
Data set [17] has as its system PC-3. The data set is described as follows: Induction of autophagy in human PC3 cells assessed as increase LC3 intracellular localization at 100 nM to 300 nM after 24 hrs by immunocytochemistry. The format is functional, cell-based.
Data set [18] relates to PC-3. Kind of data set: Induction of autophagy in human PC3 cells at 100 to 300 nM after 24 hrs by acridine orange staining based fluorescence microscopy. The format is functional.
In data set [19] the test system is PC-3. Kind of data set: Induction of autophagy in human PC3 cells at 100 to 300 nM after 24 hrs by MDC staining based fluorescence microscopy. The format is functional, cell-based.
The test system of data set [20] is PC-3. Kind of data set: Induction of apoptosis in human PC3 cells at 300 nM pre-treated with 5 mM autophagy inhibitor 3-MA for 1 hr before compound exposure for 24 hrs by DAPI staining method. Format: functional, cell-based.
Data set [21] can be described thus: Effect on total mTOR protein levels in human PC3 cells at 0.1 to 0.3 uM after 24 hrs by Western blotting method. The following applies: pc-3, 24 h. The format is ADME, cell-based.
The test system of data set [22] is Mus musculus. The data set is described as follows: Toxicity in mouse S180 solid tumor cells implanted Swiss albino mouse assessed as mouse mortality at 10 mg/kg, ip measured on day 13. Format: organism-based. Further details: dose 10 mg/kg, route intraperitoneal. The following applies: in vivo.
For data set [23], the system named is PC-3. Kind of data set: Induction of autophagy in human PC3 cells at 300 nM pre-treated with 20 uM apoptosis inhibitor z-VAD-fmk for 1 hr before compound exposure for 24 hrs by acridine orange staining based fluorescence microscopy. Format: functional, cell-based.
Data set [24] has as its system Mus musculus. The data set is described as follows: Toxicity in mouse S180 ascites cells implanted Swiss albino mouse assessed as mouse mortality at 10 mg/kg, ip measured on day 13. Format: organism-based. Also noted: dose 10 mg/kg, route intraperitoneal. The following applies: in vivo.
For data set [25], the system named is PC-3. Kind of data set: Induction of apoptosis in human PC3 cells assessed as nuclear condensation at 100 to 300 nM after 24 hrs by DAPI staining assay. Format: functional, cell-based.
Data set [26] has as its system PC-3. The data set is described as follows: Induction of autophagy in human PC3 cells over-expressing Bcl-2 at 300 nM pre-treated with 5 mM autophagy inhibitor 3-MA for 1 hr before compound exposure for 24 hrs by acridine orange staining based fluorescence microscopy. The format is functional, cell-based.
In data set [27] the test system is PC-3. The data set is described as follows: Induction of apoptosis in human PC3 cells assessed as increase in Annexin-V positive cells at 0.1 to 0.3 uM after 24 hrs. The format is functional, cell-based.
Data set [28] relates to CCRF S-180. Kind of data set: Antitumor activity against mouse S180 ascites cells implanted in Swiss albino mouse assessed as tumor growth inhibition at 10 mg/kg, ip measured on day 12. Format: functional. The following applies: CCRF S-180, ip, 288 h, route intraperitoneal, read-out: TGI.
Data set [29] concerns PC-3. Kind of data set: Induction of apoptosis in human PC3 cells over-expressing Bcl-2 at 300 nM pre-treated with 20 uM apoptosis inhibitor z-VAD-fmk for 1 hr before compound exposure for 24 hrs by DAPI staining method. Format: functional, cell-based.
Data set [30] has as its system CCRF S-180. The data set is described as follows: Antitumor activity against mouse S180 ascites cells implanted in Swiss albino mouse assessed as tumor growth inhibition at 5 mg/kg, ip measured on day 12. Format: functional. The following applies: CCRF S-180, ip, 288 h, route intraperitoneal, read-out: TGI.
Data set [31] concerns Mus musculus. The data set is described as follows: Toxicity in mouse S180 solid tumor cells implanted Swiss albino mouse assessed as mouse mortality at 5 mg/kg, ip measured on day 13. The format is organism-based. Also noted: dose 5 mg/kg, route intraperitoneal. The following applies: in vivo.
The test system of data set [32] is PC-3. Kind of data set: Inhibition of Akt S473 phosphorylation in human PC3 cells at 0.1 to 0.3 uM after 24 hrs by Western blotting method. Format: cell-based.
Data set [33] deals with PC-3. The data set is described as follows: Induction of autophagy in human PC3 cells assessed as LC3 protein accumulation in autophagosomes after 24 hrs by fluorescence microscopy. The format is functional, cell-based.
Data set [34] concerns PC-3. Kind of data set: Induction of autophagy in human PC3 cells assessed as autophagosomes formation at 100 to 300 nM after 24 hrs by acridine orange staining based fluorescence microscopy. The format is functional, cell-based.
The subject of data set [35] is PC-3. Kind of data set: Induction of autophagy in human PC3 cells assessed as reduction in SQSTM1/P62 protein levels at 0.1 to 0.3 uM after 24 hrs by Western blotting method. Format: functional, cell-based.
For data set [36], the system named is CCRF S-180. Kind of data set: Antitumor activity against mouse S180 solid tumor cells implanted in Swiss albino mouse assessed as tumor growth inhibition at 5 mg/kg, ip measured on day 13. Format: functional. The following applies: CCRF S-180, ip, 312 h, route intraperitoneal, read-out: TGI.
Data set [37] has as its system PC-3. The data set is described as follows: Induction of autophagy in human PC3 cells assessed as increase in punctate EGFP-LC3 pattern in autophagosomes at 100 nM to 300 nM after 24 hrs by fluorescence microscopy. Format: functional, cell-based.
Data set [38] deals with PC-3. The data set is described as follows: Induction of autophagy in human PC3 cells assessed as increase in conversion of LC3-I to LC3-II at 0.1 to 0.3 uM after 24 hrs by Western blotting method. The format is functional, cell-based.
Data set [39] concerns PC-3. The data set is described as follows: Increase in autophagy in human PC3 cells at 300 nM pre-treated with 20 uM apoptosis inhibitor z-VAD-fmk for 1 hr before compound exposure for 24 hrs by acridine orange staining based fluorescence microscopy. Format: functional, cell-based.
Data set [40] concerns CCRF S-180. The data set is described as follows: Antitumor activity against mouse S180 solid tumor cells implanted in Swiss albino mouse assessed as tumor growth inhibition at 22 mg/kg, ip measured on day 13. Format: functional. The following applies: CCRF S-180, ip, 312 h, route intraperitoneal, read-out: TGI.
Data set [41] deals with CCRF S-180. Kind of data set: Antitumor activity against mouse S180 ascites cells implanted in Swiss albino mouse assessed as tumor growth inhibition at 22 mg/kg, ip measured on day 12. The format is functional. The following applies: CCRF S-180, ip, 288 h, route intraperitoneal, read-out: TGI.
The subject of data set [42] is Mus musculus. Kind of data set: Toxicity in mouse S180 solid tumor cells implanted Swiss albino mouse assessed as mouse mortality at 22 mg/kg, ip measured on day 13. The format is organism-based. Also noted: dose 22 mg/kg, route intraperitoneal. The following applies: in vivo.
The test system of data set [43] is Mus musculus. Kind of data set: Toxicity in mouse S180 ascites cells implanted Swiss albino mouse assessed as mouse mortality at 22 mg/kg, ip measured on day 13. Format: organism-based. Further details: dose 22 mg/kg, route intraperitoneal. The following applies: in vivo.

`CC1(C)CCC[C@]2(C)[C@@H](CC[C@@](C)(O)/C=C/c3ccc(F)cc3)[C@](C)(O)CC[C@@H]12`: the values for the IC50 (in the data set on HeLa; in data set [6]; with A549) were 3.46 µM, 0.082 µM and 3.1 µM, respectively. Also, the result with PC-3 [1], in the data set with PC-3 [4], with PC-3 [7], in the data set on PC-3 [9], in the data set on PC-3 [20] and in the data set on PC-3 [23] was inactive. Moreover, the outcome in the data set with PC-3 [29] was inactive. Moreover, the result in the data set with PC-3 [2], with PC-3 [5], with PC-3 [11], in the data set with PC-3 [14], with PC-3 [15] and with PC-3 [17] was Active. The outcome in the data set with PC-3 [18], in the data set on PC-3 [19], in the data set on PC-3 [25], with PC-3 [26], in the data set with PC-3 [27] and with PC-3 [33] was Active. Further, the outcome in the data set on PC-3 [34], in the data set on PC-3 [37] and with PC-3 [39] was Active. For the same molecule, the Activity entry in the data set with Mus musculus [3] is “Non-toxic”; in [8] it was “Dose-dependent effect”; in the data set on PC-3 [10] it was “Dose-dependent effect”; in data set [16], “Non-toxic”; in data set [21], “Non-toxic”; in the data set on Mus musculus [22] it was “Non-toxic”. Also, the Activity entry with Mus musculus [24] is “Non-toxic”; in the data set with Mus musculus [31] it was “Non-toxic”; in the data set with PC-3 [35] it was “Dose-dependent effect”; with PC-3 [38] it was “Dose-dependent effect”. In addition, the inhibition entry in the data set with PC-3 [12] and in the data set with PC-3 [32] was “Active” in each case. For the same molecule, the inhibition in vivo at 10 mg/kg came out at 39.8% in the data set on CCRF S-180 [13] and 74.9% with CCRF S-180 [28]. For the same molecule, the inhibition in vivo at 5 mg/kg in the data set with CCRF S-180 [30] turned out to be 64.7%; in the data set on CCRF S-180 [36], 32.5%.
Consider `O=c1[nH]cc(F)c(=O)[nH]1` [FLUOROURACIL], for which the results for the inhibition in vivo at 22 mg/kg with CCRF S-180 [40] and in the data set with CCRF S-180 [41] were 52.5% and 96.9%, respectively. Further, the Activity result with Mus musculus [42] and in the data set on Mus musculus [43] was “Non-toxic” in each case.
